Data taken from patent US20180344715A1, “WNT/BETA-CATENIN SIGNAL TRANSDUCTION INHIBITORS AND THEIR USE IN TREATMENT OR PREVENTION OF DISEASES AND CONDITIONS LINKED WITH SAID TRANSDUCTION” (BERGEN TEKNOLOGIOVERFORING AS, priority 2015, published 2018).

Columns and labels:
[1] = target: T1, MED23 (Homo sapiens, UniProt Q9ULK4); experiment: Chromatin immunoprecipitation (ChIP) of MED23 at Wnt target genes; assay type: cell-based; conditions: SW480, 5 μM overnight
T1 construct: endogenous in cells; host or cells: SW480
T1 sequence (Q9ULK4 1-1368): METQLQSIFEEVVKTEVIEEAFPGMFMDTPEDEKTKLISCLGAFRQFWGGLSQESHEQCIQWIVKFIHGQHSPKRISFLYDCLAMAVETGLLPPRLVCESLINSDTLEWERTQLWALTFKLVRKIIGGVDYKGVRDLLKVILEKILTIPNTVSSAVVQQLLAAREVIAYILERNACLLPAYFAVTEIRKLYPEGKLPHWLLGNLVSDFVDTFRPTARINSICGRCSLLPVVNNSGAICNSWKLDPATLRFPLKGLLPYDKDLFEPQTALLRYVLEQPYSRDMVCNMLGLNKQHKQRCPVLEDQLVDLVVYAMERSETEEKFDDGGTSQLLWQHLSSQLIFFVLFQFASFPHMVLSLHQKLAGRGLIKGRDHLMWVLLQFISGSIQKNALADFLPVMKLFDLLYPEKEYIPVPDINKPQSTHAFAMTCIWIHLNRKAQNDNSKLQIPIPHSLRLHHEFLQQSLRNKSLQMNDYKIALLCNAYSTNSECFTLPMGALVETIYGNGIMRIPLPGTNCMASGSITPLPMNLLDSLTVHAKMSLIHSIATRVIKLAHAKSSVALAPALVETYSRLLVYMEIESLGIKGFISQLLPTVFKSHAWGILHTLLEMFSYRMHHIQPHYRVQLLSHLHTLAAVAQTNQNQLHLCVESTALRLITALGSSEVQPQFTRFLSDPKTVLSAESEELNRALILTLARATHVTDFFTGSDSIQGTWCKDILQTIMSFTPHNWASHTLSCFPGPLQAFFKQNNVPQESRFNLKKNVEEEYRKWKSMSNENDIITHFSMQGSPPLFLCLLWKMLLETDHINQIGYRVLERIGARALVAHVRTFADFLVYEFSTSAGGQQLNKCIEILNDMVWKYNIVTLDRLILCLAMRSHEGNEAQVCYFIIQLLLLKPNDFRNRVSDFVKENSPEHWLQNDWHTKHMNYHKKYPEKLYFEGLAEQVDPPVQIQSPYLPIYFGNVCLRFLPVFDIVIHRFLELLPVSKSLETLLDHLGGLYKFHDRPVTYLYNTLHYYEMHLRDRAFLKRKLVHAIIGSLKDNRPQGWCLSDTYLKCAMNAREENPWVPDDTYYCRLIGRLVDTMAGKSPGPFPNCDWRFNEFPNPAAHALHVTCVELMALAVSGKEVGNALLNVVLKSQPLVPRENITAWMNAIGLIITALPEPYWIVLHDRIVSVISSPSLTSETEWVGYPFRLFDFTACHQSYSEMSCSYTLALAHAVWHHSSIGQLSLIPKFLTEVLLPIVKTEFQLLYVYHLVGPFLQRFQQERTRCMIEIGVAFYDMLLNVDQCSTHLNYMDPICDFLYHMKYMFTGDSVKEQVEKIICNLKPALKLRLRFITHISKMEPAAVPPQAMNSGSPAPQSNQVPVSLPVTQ
Description: ChIP was performed according to the protocol previously described with a few modifications on the crosslinking procedures (Ke, X. S. et al., 2009, PLoS One 4, e4687). […] The reaction was quenched with 1/50 volume of 2.5 M glycine. Cells were lysed and the nuclei were sonicated to fragments ranging from 200 bp to 500 bp. After saving 0.2% total chromatin for input DNA purification, sonicated lysates were equally divided to three tubes and immunoprecipitated with Protein G beads (Life technologies, 10004D) coupled with 5 μg mouse IgG (15381, Sigma), antibody against MED23(BD550429, clone D27-1805, BD Biosciences) and β-catenin (ab22656, clone 12F7, Abcam), respectively. The immunoprecipitated DNA was purified and examined by PCR described below.
To determine the purified DNA from ChIP samples, quantitative PCR was performed with RT^2 SYBR Green/ROX PCR Master Mix and the PCR reactions were examined by 2% agarose gel electrophoresis. PCR primers were designed to cover the canonical TCF/β-catenin binding motifs of 6 randomly chosen β-catenin target genes (shown in FIG. 4c). The sequences and genomic locations (NCBI36/hg18) of PCR primers are listed below. GAPDH was used as a negative control.

[2] = target: T2, free GFP (Aequorea victoria, UniProt P42212); experiment: MST ligand-binding assay, free GFP negative control; conditions: SW480 cell lysates, negative controls, two parallels
T2 construct: expressed in transfected cells; host or cells: SW480
Description: Ten million SW480 cells overexpressing GFP-tagged SHPRH or free GFP were lysed in 1 mL radioimmunoprecipitation assay (RIPA) buffer. Cell lysates were diluted in buffer A [50 mM Hepes buffer (pH 7.5), 5 mM DTT, 10 mM CaCl2), 50 mM NaCl, and 0.05% Tween-20] to a final concentration at which the fluorescent signals of the GFP proteins were similar and well above the detection limit of the Monolith NT.115 instrument (NanoTemper Technologies GmbH). Ten microliters of each receptor were mixed with 10 μL of the ligand at various concentrations from 100 μM to 3.05 nM. Specifically, the ligand (4 mM in 100% DMSO) was diluted 1:20 to a final concentration of 200 μM in buffer A (giving 5% DMSO). Ten microliters of the 200 μM ligand solution was further serially diluted 1:1 in 10 μL of buffer A supplemented with 5% DMSO to make a 16-sample dilution series down to 6.1 nM. Ten microliters of the cell lysate were added to 10 μL of each ligand solution. […] The fluorescence signal during the thermophoresis was monitored for 30 s, and the change in fluorescence was analyzed as thermophoresis with T-jump. The Kd was calculated by fitting a standard binding curve to the average of four independent dilution series.

For CNC(=O)c1ccccc1Sc1ccc2c(/C=C/c3ccccn3)n[nH]c2c1 [axitinib, N-Methyl-2-[[3-[(E)-2-pyridin-2-ylethenyl]-1H-indazol-6-yl]sulfanyl]benzamide], which “MED23 occupancy at TCF/LEF-binding motifs of Wnt target genes” value [1] is on record?
The value was “reduced”.

And the “binding of the ligand to free GFP” value [2]?
Its value is “did not show any binding”.
